These results are taken from ChEMBL document CHEMBL3992534, “Design, Synthesis, and Biological Evaluation of Novel, Non-Brain-Penetrant, Hybrid Cannabinoid CB1R Inverse Agonist/Inducible Nitric Oxide Synthase (iNOS) Inhibitors for the Treatment of Liver Fibrosis” (J Med Chem, 2017).

The source made the active and inactive calls. The rule behind the calls is not given here. Bounds are passed on as bounds.

Data set [1] concerns Mus musculus. The experiment in a line: In vivo antagonist activity at CB1R in C57Bl6/J mouse assessed as reversal of ACEA-induced reduction in upper gastrointestinal motility administered via oral gavage administered 30 mins prior to ACEA addition. In kind it is functional, organism-based.
The subject of data set [2] is Brain. As to the kind of experiment: Drug level in C57Bl6/J mouse brain at 10 mg/kg, po administered via gavage measured after 1 hr by LC-MS/MS analysis. Type of data set: ADME, organism-based. The settings on record: in vivo.
The test system of data set [3] is Brain. The experiment in a line: Drug level in C57Bl6/J mouse brain at 10 mg/kg, po administered via gavage measured after 28 days by LC-MS/MS analysis. Type of data set: ADME, organism-based. The settings on record: in vivo, 672 h.
Data set [4] concerns Liver. The experiment in a line: Drug uptake in C57Bl6/J mouse liver at 10 mg/kg, po administered via gavage measured after 28 days by LC-MS/MS analysis. Type of data set: ADME, organism-based. The settings on record: in vivo, 672 h.
The subject of data set [5] is Liver. The experiment in a line: Drug uptake in C57Bl6/J mouse liver at 10 mg/kg, po administered via gavage measured after 1 hr by LC-MS/MS analysis. In kind it is ADME, organism-based. The settings on record: in vivo.
Data set [6] has as its system Mus musculus. As to the kind of experiment: Antifibrotic activity in CCl4-induced C57Bl6/J mouse liver fibrosis model assessed as reduction in liver fibrosis at 10 mg/kg administered via oral gavage for 4 weeks by picrosirius red staining based histological analysis. In kind it is functional, organism-based.
The nature of data set [7]: Ratio of drug level in brain to plasma in C57Bl6/J mouse at 10 mg/kg, po administered via gavage measured after 1 hr by LC-MS/MS analysis. Type of data set: ADME, organism-based.
The nature of data set [8]: Ratio of drug level in brain to plasma in C57Bl6/J mouse at 10 mg/kg, po administered via gavage measured after 28 days by LC-MS/MS analysis. Type of data set: ADME, organism-based. To be noted: brain and plasma, read-out: BPR.
Data set [9] deals with Mus musculus. As to the kind of experiment: In vivo antagonist activity at CB1R in C57Bl6/J mouse assessed as induction of anxiogenic behavior at 10 mg/kg administered once daily via oral gavage for 28 days by elevated plus maze test. Type of data set: functional, organism-based.
For data set [10], the system named is Mus musculus. The experiment in a line: Antiobesity activity in diet-induced obesity C57Bl6/J mouse model assessed as reduction in body weight administered once daily via oral gavage for 2 weeks. In kind it is functional.
The subject of data set [11] is Mus musculus. The experiment in a line: Antiobesity activity in diet-induced obesity C57Bl6/J mouse model assessed as reduction in hepatic steatosis by measuring hepatic triglyceride level administered once daily via oral gavage for 2 weeks. In kind it is functional.
The test system of data set [12] is Mus musculus. The experiment in a line: Antifibrotic activity in CCl4-induced C57Bl6/J mouse liver fibrosis model assessed as reduction in iNOS level at 10 mg/kg administered via oral gavage for 4 weeks by immunostaining based method. In kind it is functional, organism-based.
The subject of data set [13] is Mus musculus. As to the kind of experiment: Antiobesity activity in diet-induced obesity C57Bl6/J mouse model assessed as reduction in food intake administered once daily via oral gavage for 2 weeks. Type of data set: functional.
The subject of data set [14] is Mus musculus. As to the kind of experiment: Antiobesity activity in diet-induced obesity C57Bl6/J mouse model assessed as improvement in glucose tolerance administered once daily via oral gavage for 2 weeks measured at post last dose by ipGTT. In kind it is functional.
The subject of data set [15] is Salmonella typhimurium. The experiment in a line: Mutagenicity in Salmonella typhimurium TA98 up to 125 ug/ml by Ames test. In kind it is toxicity. To be noted: salmonella enterica subsp. enterica serovar typhimurium.
A short description of data set [16]: Tmax in mouse at 10 mg/kg, po. Type of data set: ADME, organism-based. The settings on record: in vivo.
A short description of data set [17]: Half life in mouse at 10 mg/kg, po. To be noted: in vivo. Type of data set: ADME, organism-based.
The nature of data set [18]: Tmax in Sprague-Dawley rat at 10 mg/kg, po. In kind it is ADME, organism-based. To be noted: in vivo.
Data set [19] in a line: Half life in Sprague-Dawley rat at 10 mg/kg, po. Type of data set: ADME, organism-based. The settings on record: in vivo.
The nature of data set [20]: Oral bioavailability in Sprague-Dawley rat at 10 mg/kg. The settings on record: in vivo. Type of data set: ADME, organism-based.
Data set [21] has as its system Mus musculus. As to the kind of experiment: Antifibrotic activity in BDL-induced wild-type C57Bl6/J mouse liver damage model assessed as reduction in collagen deposition in liver at 10 mg/kg administered once daily via oral gavage by picrosirius staining based histological analysis. In kind it is functional, organism-based.
Data set [22] has as its system Mus musculus. The experiment in a line: Antifibrotic activity in BDL-induced CB1R deficient C57Bl6/J mouse liver damage model assessed as reduction in collagen deposition in liver at 10 mg/kg administered once daily via oral gavage by picrosirius staining based histological analysis. Type of data set: functional, organism-based.
The subject of data set [23] is Mus musculus. The experiment in a line: Antifibrotic activity in BDL-induced wild-type C57Bl6/J mouse liver damage model assessed as reduction in liver fibrosis at 10 mg/kg administered once daily via oral gavage starting on day 6 post-BDL induction by picrosirius red staining based histological analysis. Type of data set: functional, organism-based.
Data set [24] concerns Salmonella typhimurium. As to the kind of experiment: Mutagenicity in Salmonella typhimurium TA100 up to 125 ug/ml by Ames test. In kind it is toxicity. To be noted: salmonella enterica subsp. enterica serovar typhimurium. For orientation: In the Ames test, an excess of revertant colonies over the control signals mutagenicity.
Data set [25] deals with Mus musculus. The experiment in a line: Antifibrotic activity in CCl4-induced C57Bl6/J mouse liver fibrosis model assessed as reduction in liver fibrosis at 3 mg/kg administered via oral gavage for 4 weeks by picrosirius red staining based histological analysis. Type of data set: functional, organism-based.
For data set [26], the system named is Mus musculus. As to the kind of experiment: Antifibrotic activity in BDL-induced wild-type C57Bl6/J mouse liver damage model assessed as reduction in collagen deposition in liver at 30 mg/kg administered once daily via oral gavage by picrosirius staining based histological analysis. Type of data set: functional, organism-based.
The test system of data set [27] is Mus musculus. The experiment in a line: Antifibrotic activity in BDL-induced CB1R deficient C57Bl6/J mouse liver damage model assessed as reduction in collagen deposition in liver at 3 mg/kg administered once daily via oral gavage by picrosirius red staining based histological analysis. In kind it is functional, organism-based.
For data set [28], the system named is Mus musculus. The experiment in a line: Antifibrotic activity in BDL-induced wild-type C57Bl6/J mouse liver damage model assessed as reduction in liver fibrosis at 3 mg/kg administered once daily via oral gavage starting on day 6 post-BDL induction by picrosirius red staining based histological analysis. In kind it is functional, organism-based.
In data set [29] the test system is Mus musculus. As to the kind of experiment: Antifibrotic activity in CCl4-induced C57Bl6/J mouse liver fibrosis model assessed as reduction in iNOS level at 3 mg/kg administered via oral gavage for 4 weeks by immunostaining based method. In kind it is functional, organism-based.

The term Tmax denotes the time from dosing to the highest level. A word on the half-life: it is the time in which the quantity being followed falls by half. The low end stands for fast loss, the high end for slow loss. In general, bioavailability refers to dose-corrected exposure relative to a reference, in per cent. The low end stands for little systemic uptake, the high end for much systemic uptake. Regarding `C/C(N)=N\C(=N/S(=O)(=O)c1ccc(Cl)cc1)N1C[C@H](c2ccccc2)C(c2ccc(Cl)cc2)=N1`, the Activity result in the data set on Mus musculus [1] was “Dose-dependent effect”; with Mus musculus [10], “Dose-dependent effect”; with Mus musculus [11], “Dose-dependent effect”; with Mus musculus [13] it was “Dose-dependent effect”; in the data set with Mus musculus [14], “Dose-dependent effect”; in the data set on Salmonella typhimurium [15], “Non-Toxic”. Also, the Activity entry with Salmonella typhimurium [24] was “Non-Toxic”. Besides, the Drug uptake with Brain [2] is less than 3%; with Brain [3], less than 3%; with Liver [4], “Active”; in the data set with Liver [5] it was “Active”. The result in the data set with Mus musculus [6], in the data set with Mus musculus [12], with Mus musculus [21], with Mus musculus [22] and in the data set on Mus musculus [23] was Active. Moreover, the BPR in data set [7] is given as 2.7%. Besides, the Kp at 672 h in data set [8] turned out to be 0.03. In addition, the result with Mus musculus [9] was inactive. The Tmax in [16] was 1 h; in data set [18], 0.75 h. In addition, the half-life in [17] and in data set [19] was 2 h each time. The bioavailability in data set [20] worked out at 55%.

Regarding `Cc1c(C(=O)NN2CCCCC2)nn(-c2ccc(Cl)cc2Cl)c1-c1ccc(Cl)cc1`, the outcome in the data set on Mus musculus [9], in the data set with Mus musculus [25] and in the data set on Mus musculus [26] was Active. For the same compound, the outcome with Mus musculus [27], with Mus musculus [28] and in the data set with Mus musculus [29] was inactive.
